PMC4897628, “CRF receptor 1 antagonism and brain distribution of active components contribute to the ameliorative effect of rikkunshito on stress-induced anorexia” (Scientific Reports, 2016)

What was measured:
[1] = target: T1, CRFR1 (human CRF receptor 1, corticotropin-releasing factor receptor 1) (Homo sapiens, UniProt P34998); assay: HTRF cAMP assay, antagonist mode, transfected CHO cells; format: cell-based
T1 construct: gene CRHR1; receptor expressed in transfected CHO cells (Cerep)
T1 sequence (P34998 24-415): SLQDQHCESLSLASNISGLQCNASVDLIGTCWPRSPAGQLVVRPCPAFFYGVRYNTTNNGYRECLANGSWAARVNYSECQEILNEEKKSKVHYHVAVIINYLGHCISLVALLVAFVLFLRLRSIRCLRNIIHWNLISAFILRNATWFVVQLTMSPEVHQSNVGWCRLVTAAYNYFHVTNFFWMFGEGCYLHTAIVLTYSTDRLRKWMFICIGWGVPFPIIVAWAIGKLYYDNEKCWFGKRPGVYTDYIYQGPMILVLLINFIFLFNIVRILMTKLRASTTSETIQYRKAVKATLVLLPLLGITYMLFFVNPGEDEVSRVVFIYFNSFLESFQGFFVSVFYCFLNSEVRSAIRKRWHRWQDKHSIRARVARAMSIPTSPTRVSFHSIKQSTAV
Excerpt: HTRF cAMP assay, antagonist mode, transfected CHO cells on CRFR1 (human CRF receptor 1, corticotropin-releasing factor receptor 1)

[2] = target: T1, CRFR1 (human CRF receptor 1, corticotropin-releasing factor receptor 1); assay: HTRF cAMP assay, antagonist mode, transfected CHO cells; KB from IC50 by modified Cheng-Prusoff equation; format: cell-based
Excerpt: HTRF cAMP assay, antagonist mode, transfected CHO cells; KB from IC50 by modified Cheng-Prusoff equation on CRFR1 (human CRF receptor 1, corticotropin-releasing factor receptor 1)

Row | IC50 [1] | Kb [2] | Compound
1 | 52 µM | 1.3 µM | COc1c(CC=C(C)C)c(O)cc2oc(=O)c(-c3ccc(O)cc3O)cc12 [Glycycoumarin]
2 | 14 µM | 0.35 µM | CC1(C)[C@@H](O)CC[C@]2(C)[C@H]3C(=O)C=C4[C@@H]5C[C@@](C)(C(=O)O)CC[C@]5(C)CC[C@@]4(C)[C@]3(C)CC[C@@H]12 [Glycyrrhetic acid]
3 | 130 µM | 45 µM | COc1ccc([C@@H]2CC(=O)c3c(O)cc(O)cc3O2)cc1O [Hesperetin]
4 | 28 µM | 0.67 µM | O=C(/C=C/c1ccc(O)cc1)c1ccc(O)cc1O [Isoliquiritigenin]
5 | 15 µM | 0.36 µM | COc1ccc(-c2cc(=O)c3c(OC)c(OC)c(OC)c(OC)c3o2)cc1OC [Nobiletin]
6 | 60 µM | 1.5 µM | COc1ccc(-c2cc(=O)c3c(OC)c(OC)c(OC)c(OC)c3o2)cc1 [Tangeretin]
7 | 74 µM | 1.8 µM | CCCCCCC/C=C/C(=O)CCc1ccc(O)c(OC)c1 [[8]-Shogaol]
